pIC50: −log10 of the molar value.
Key:
[1] = molecular target: T1, wild type AXL (wtAXL) receptor tyrosine kinase (Homo sapiens, UniProt P30530); assay: NIH-3T3-AXL cellular tyrosine kinase assay (inhibition of AXL phosphorylation); format: cell-based; details: AXL phosphorylation in NIH-3T3-AXL (clone 22) cells, serum-depleted, 2 h with compound, immunoprecipitation / anti-phosphotyrosine blot
T1 construct: WtAXL cDNA was cloned into vector pLXSN(ESK) and transfected into Phoenix E packaging cells; expressed in transfected cells; host or cells: NIH3T3 N7 mouse fibroblasts, retrovirally infected (clone 22)
T1 sequence (P30530 26-894): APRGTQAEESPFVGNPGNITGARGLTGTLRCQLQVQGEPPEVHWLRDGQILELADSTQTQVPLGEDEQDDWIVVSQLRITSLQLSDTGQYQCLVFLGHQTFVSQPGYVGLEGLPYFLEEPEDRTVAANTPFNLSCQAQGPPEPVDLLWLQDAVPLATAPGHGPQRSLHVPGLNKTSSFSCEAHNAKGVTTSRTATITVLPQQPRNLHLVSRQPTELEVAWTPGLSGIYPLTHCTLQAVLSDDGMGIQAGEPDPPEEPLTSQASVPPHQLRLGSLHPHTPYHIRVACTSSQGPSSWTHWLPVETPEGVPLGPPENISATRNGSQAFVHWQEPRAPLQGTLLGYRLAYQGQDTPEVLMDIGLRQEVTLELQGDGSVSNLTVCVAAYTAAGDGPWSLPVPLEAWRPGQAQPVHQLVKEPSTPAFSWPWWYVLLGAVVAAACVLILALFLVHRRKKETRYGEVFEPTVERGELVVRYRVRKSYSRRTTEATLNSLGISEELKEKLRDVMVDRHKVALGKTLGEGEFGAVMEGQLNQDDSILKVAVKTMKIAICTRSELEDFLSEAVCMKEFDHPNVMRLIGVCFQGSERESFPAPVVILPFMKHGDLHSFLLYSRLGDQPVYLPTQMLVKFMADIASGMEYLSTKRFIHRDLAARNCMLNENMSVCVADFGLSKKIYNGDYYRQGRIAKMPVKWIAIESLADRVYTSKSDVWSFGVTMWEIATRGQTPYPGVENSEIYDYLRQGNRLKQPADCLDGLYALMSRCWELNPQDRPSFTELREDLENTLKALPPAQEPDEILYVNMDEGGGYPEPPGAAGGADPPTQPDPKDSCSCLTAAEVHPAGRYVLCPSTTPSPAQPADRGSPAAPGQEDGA
Summary of the method: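 NIH3T3 clones stably expressing human wtAXL (puromycin-selected) were exposed to serially diluted compounds for 2 h. AXL was immunoprecipitated from lysates with anti-AXL antibody, and phosphorylation detected by anti-phosphotyrosine (4G10) western blot with ECL.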

Row | pIC50 [1] | melting point | SMILES
1 | < 5.00 | 243 to 245 °C | COc1cc2nccc(Oc3ccc(NS(=O)(=O)c4cc(F)cc(F)c4)c(F)c3)c2cc1OC [Example A38, N-[4-(6,7-Dimethoxy-quinolin-4-yloxy)-2-fluoro-phenyl]-3,5-difluoro-benzenesulfonamide]
2 | 5.37 | 211 to 212 °C | COc1cc2nccc(Oc3ccc(NS(=O)(=O)c4ccc(C)c(F)c4)c(F)c3)c2cc1OC [Example A6, N-[4-(6,7-Dimethoxy-quinolin-4-yloxy)-2-fluoro-phenyl]-3-fluoro-4-methyl-benzenesulfonamide]
3 | < 5.52 | 267 to 270 °C | COc1cc2nccc(Oc3ccc(NS(=O)(=O)c4csc5ccccc45)cc3)c2cc1OC [Example A84, Benzo[b]thiophene-3-sulfonic acid [4-(6,7-dimethoxy-quinolin-4-yloxy)-phenyl]-amide]
4 | < 5.00 | 232 to 234 °C | COc1cc2nccc(Oc3ccc(NS(=O)(=O)c4ccc(Br)c(Cl)c4)cc3)c2cc1OC [Example A117, 4-Bromo-3-chloro-N-[4-(6,7-dimethoxy-quinolin-4-yloxy)-phenyl]-benzenesulfonamide]
5 | 6.05 | 226 to 228 °C | COc1cc2nccc(Oc3ccc(NS(=O)(=O)c4ccc(Br)cc4OC(F)(F)F)cc3F)c2cc1OC [Example A146, 4-Bromo-N-[4-(6,7-dimethoxy-quinolin-4-yloxy)-3-fluoro-phenyl]-2-trifluoromethoxy-benzenesulfonamide]
6 | < 5.52 | 164 to 166 °C | CCCCS(=O)(=O)Nc1ccc(Oc2ccnc3cc(OC)c(OC)cc23)cc1F [Example A71, Butane-1-sulfonic acid [4-(6,7-dimethoxy-quinolin-4-yloxy)-2-fluoro-phenyl]-amide]
7 | < 5.00 | 191 to 194 °C | COc1cc2nccc(Oc3ccc(NS(=O)(=O)c4ccc(-c5ccccc5)cc4)cc3)c2cc1OC [Example A81, Biphenyl-4-sulfonic acid [4-(6,7-dimethoxy-quinolin-4-yloxy)-phenyl]-amide]
8 | 5.85 | 223 to 225 °C | COc1cc2nccc(Oc3ccc(NS(=O)(=O)c4c(F)cccc4F)c(F)c3)c2cc1OC [Example A14, N-[4-(6,7-Dimethoxy-quinolin-4-yloxy)-2-fluoro-phenyl]-2,6-difluoro-benzenesulfonamide]
9 | 6.20 | 179 to 180 °C | COc1cc2nccc(Oc3ccc(NS(=O)(=O)c4cccc(Oc5ccccc5)c4)c(F)c3)c2cc1OC [Example A30, N-[4-(6,7-Dimethoxy-quinolin-4-yloxy)-2-fluoro-phenyl]-3-phenoxy-benzenesulfonamide]
10 | < 5.00 | 134 to 136 °C | COc1cc2nccc(Oc3ccc(NS(=O)(=O)c4cc(C)ccc4NC(C)=O)cc3)c2cc1OC [Example A65, N-{2-[4-(6,7-Dimethoxy-quinolin-4-yloxy)-phenylsulfamoyl]-4-methyl-phenyl}-acetamide]
11 | 6.74 | 232 to 234 °C | COc1cc2nccc(Oc3ccc(NS(=O)(=O)c4cc(F)ccc4F)cc3F)c2cc1OC [Example A99, N-[4-(6,7-Dimethoxy-quinolin-4-yloxy)-3-fluoro-phenyl]-2,5-difluoro-benzenesulfonamide]
12 | < 6.00 | 211 to 212 °C | COc1ccc(S(=O)(=O)Nc2ccc(Oc3ccnc4cc(OC)c(OC)cc34)cc2)cc1Br [Example A74, 3-Bromo-N-[4-(6,7-dimethoxy-quinolin-4-yloxy)-phenyl]-4-methoxy-benzenesulfonamide]
13 | < 6.00 | 197 to 200 °C | COc1cc2nccc(Oc3ccc(NS(=O)(=O)c4cccc(-c5ccccc5)c4)cc3)c2cc1OC [Example A86, Biphenyl-3-sulfonic acid [4-(6,7-dimethoxy-quinolin-4-yloxy)-phenyl]-amide]
